According to patent US20240009359A1, “DRUG ELUTING ELASTIC BANDS AND LIGATION” (MEMORIAL SLOAN KETTERING CANCER CENTER, priority 2020, published 2024):
Entries after “also recorded” stand apart in the source; their conditions may differ.

Experiments:
[1] = Drug release from rubber bands in physiological medium; format: physicochemical; conditions: pH 7.9, 37 degrees Celsius; for Drug release from rubber band: released drug measured over time
Description: To see whether the lidocaine loaded within the rubber is dispersed evenly, a larger lidocaine loaded rubber slab was prepared and cut into pieces from either the middle or the edges of the slab. The amount of drug released was measured (see FIG. 9K) and normalized to the amount of rubber (see FIG. 9L).

HL-1 cardiomyocytes = assay: Calcium imaging of HL-1 cardiomyocytes exposed to lidocaine released from rubber bands; format: cell-based; conditions: HL-1 cardiomyocytes before and after exposure to released lidocaine
Description: In accordance with various potential embodiments, and with reference to FIGS. 11A-11C, the released lidocaine was tested on cardiomyocytes. Lidocaine is known to have a cardiotoxic effect in high concentrations, and accordingly, HL-1 cardiomyocytes beating on a plate were imaged using calcium imaging before and after exposure to the released lidocaine (FIG. 11A).

MCF-7 cells = assay: Activity of salicylic acid released from rubber on MCF-7 cell viability; format: cell-based; conditions: drug loaded in rubber and released into the media in presence of MCF-7 cells
From the text: In order to verify that the released drugs are still active after elution from the rubber, salicylic acid was loaded and released into the media in the presence of MCF-7 cells.

| SMILES | Drug release from rubber band [1] | further results |
| --- | --- | --- |
| CCN(CC)CC(=O)Nc1c(C)cccc1C [lidocaine] |  | Time at which release peaked ([1]; different loading quantities): ~5 days; Calcium activity (calcium waves, fluorescence pattern) (HL-1 cardiomyocytes): inhibit spontaneous calcium waves; also recorded: much lower level of calcium activity; Rate of contraction (HL-1 cardiomyocytes): rate of contraction dropped |
| O=C(O)c1ccccc1O [salicylic acid] | released | Cell viability compared to untreated cells (MCF-7 cells): effective in reducing cell viability |
| CN(C)CCOC(c1ccccc1)c1ccccc1.Cn1c(=O)c2[nH]c(Cl)nc2n(C)c1=O [dimenhydrinate] | released |  |
| CN1C(C(=O)Nc2ccccn2)=C(O)c2ccccc2S1(=O)=O [piroxicam] | released |  |
| COC1=CC(=O)C[C@@H](C)[C@]12Oc1c(Cl)c(OC)cc(OC)c1C2=O [griseofulvin] | released |  |

Now from value to compound, other results behind:

| Drug release from rubber band [1] | SMILES | further results |
| --- | --- | --- |
| released | OB1OCc2cc(F)ccc21 [tavabarole] |  |
| released | Cc1cc(C2CCCCC2)n(O)c(=O)c1 [ciclopirox olamine] |  |
| released | CCCCN1CCCCC1C(=O)Nc1c(C)cccc1C (centres unmarked) [bupivacaine] |  |
